Each block holds one molecule with its values, some of them ahead of it.
Legend:
[1] = system: stomachs of rats; assay: Gastric irritation (bleeding and ulcerations) in rats; format: in vivo, rat; details: stomachs examined 4 hours post carrageenan injection; samples 2, 3, 7 and 9
Procedure: A carrageenan model was employed to study the effect of anti-inflammatory cochleates on edema in rat paws. Various aspirin cochleates of the invention were used to treat carrageenan-induced rat paw edema. […] Additionally, rats in all groups were examined for gastric irritation.
Samples 6-10 were prepared in accordance with Example 16, except that the lipid:aspirin molar ratio was 5:1 and soy PS was used instead of DOPS. Samples 4, 5, and 11 were prepared in a similar manner in the absence of a cargo moiety. In all cases, water was used in lieu of TES buffer. All samples were given by oral gavage at 1 hour prior to injection of carrageenan on Day 0 in a volume of 3 mL of 0.5% methylcellulose. […] Volumes of rat paw (in ml) were measured prior to carrageenan injection using a semi-automated plethysmograph (Buxco). At 0 time, 0.1 ml of 1% carrageenan in 0.9% pyrogen free saline was injected into the right hind paw of the rat. The paw volumes (in ml) were measured again 3 hours post carrageenan injection to determine inhibition of paw edema. Four rats from each of groups 2, 3, 6, 7, 8, 9 and 10 and one rat from each of groups 1, 4, 5 and 11 were bled (intravenously, jugular vein, approximately 1 ml blood) at 30 minutes and 4 hours post drug administration. Blood was collected in heparinized vacutainers. […]

[2] = HPLC stability of TY in cochleates versus free TY in solution; format: physicochemical
From the text: HPLC was used to study the stability of the TY in the cochleates, by measuring the concentration of TY in TY-cochleates as compared to free, i.e., unencochleated TY in solution.

[3] = system: SKOV3 cells; assay: Interaction of ZnTPP-cochleates with SKOV3 cells, confocal fluorescence; format: cell-based
From the text: Phase contrast light microscopy and confocal microscopy (Olympus) was used to image liposomal suspensions, cochleates and cells, with and without the aid of fluorescence, which can be used, e.g., to study cellular uptake and intracellular distribution of fluorescently labeled cochleates and cargo moieties. Confocal microscopy is particularly advantageous as it is a 3-dimensional digital imaging device that can be used to effectively view slices of cell culture. This allows verification of the presence of cochleate and other agents within a cell.
In order to study any interaction of the cochleates with cells, ZnTPP-cochleates and free ZnTPP (in solution with DMSO) were introduced to SKOV3 cell cultures, and imaged with fluorescence under a confocal microscope.
Cochleates were prepared with and without ZnTPP as described above, except that prior to introduction of the ZnTPP/solvent, liposomes were formed with 1% diolyl phosphatidylethanolamine (DOPE) liganded to pyrene (purchased Avanti). The DOPE was incorporated into the soy PS liposomes by dissolving both DOPE and lipid in solvent, drying the solvent to a film, and using an aqueous solution to form liposomes. Confocal images were taken at 1 and 24 hours after introduction to SKOV3 cells to study the uptake and any difference in the cellular distribution of cochleate/lipid and the ZnTPP. […]

Compound: COc1ccc2c(c1)c(CC(=O)O)c(C)n2C(=O)c1ccc(Cl)cc1 [indomethacin]
incidence and level of severity of gastric irritation [1]: greatest gastric irritation

concentration of degradation products (impurity 1 and impurity 2) over time [2]: degraded over time
TY concentration over time (stability) ([2]; cochleates versus free TY in solution): decreased to zero
Compound: COc1cc(/C=C(\C#N)C(N)=O)cc(CSc2nc3ccccc3s2)c1O [free TY, Tyrphostin AG-825]

Compound: CC(=O)Oc1ccccc1C(=O)O [unencochleated aspirin, aspirin]
incidence and level of severity of gastric irritation [1]: greatest gastric irritation, followed by unencochleated aspirin

Compound: C1=Cc2nc1c(-c1ccccc1)c1ccc([n-]1)c(-c1ccccc1)c1nc(c(-c3ccccc3)c3ccc([n-]3)c2-c2ccccc2)C=C1.[Zn+2] [free ZnTPP, Zinc Tetra-Phenyl Porphyrin]
degradation of ZnTPP in SKOV3 cell culture ([3]; at 24 hours): significant degradation
uptake by SKOV3 cells ([3]; confocal fluorescence images at 1 hour and 24 hours): high uptake

Reference: patent US9974745B2, “Encochleation methods, cochleates and methods of use” (RUTGERS, THE STATE UNIVERSITY OF NEW JERSEY, priority 2003, dated 2018)
